Measurements reported in patent US5968526A, “T cell epitopes of the major allergens from Dermatophagoides (house dust mite)” (Immulogic Pharamaceutical Corporation, priority 1995, dated 1999).
Each block holds one substance with its values, some of them ahead of it.

Tests used:
[1] = test system: T cell lines primed in vitro to Der p I; assay: secondary proliferation of Der p I-primed T cell lines (Examples V, VII, XI); format: cell-based, human; details: for T cell response to selected Der p I peptides: 33 positive experiments, FIG. 13; for positivity index (P.I.): mean S.I. × percent responders, 33 patients
Method: 10^7 PBMC from individual 543 were cultured in 10 ml RPMI-1640 containing 5% pooled human AB serum and supplemented with glutamine, penicillin, streptomycin and HEPES buffer in the presence of 20 μg/ml purified native Der p I/ml at 37° C. for 7 days. Viable cells were then purified by Ficoll-Hypaque centrifugation and cultured for 2 additional weeks in RPMI-1640/5% AB serum containing 5 units recombinant human IL-2/ml and 5 units recombinant human IL-4/ml. The resting T cells were then tested in a secondary proliferation assay to assess T cell responses to various house dust mite proteins and peptides. For assay, 2×10^4 resting T cells were cultured in 200 μl of RPMI-1640/5% AB serum for 3 days at 37° C. in the presence of 2×10^4 autologous Epstein-Barr virus transformed B cells (20,000 Rads) as antigen presenting cells with various concentrations of purified native Der p I or synthetic Der p I peptides. Each well then received 1 μCi tritiated thymidine for 16 hours. The counts incorporated were collected onto glass fiber filters and processed for liquid scintillation counting. Medium alone, acting as negative control, contained no allergen or peptide. The results of this experiment indicate that this particular patient responds with an S.I. of at least 2.0 to several peptides derived from the Der p I protein, including DP I-1, DP I-2, DP I-4, DP I-11, DP I-5, DP I-13, DP I-15, DP I-6.1, DP I-8, DP I-9, DP I-16, DP I-10 and DP I-17 (data not shown).
The above procedure was followed with a number of other house dust mite allergic individuals except a) in individual cases, the length of time of cultivation with IL-2 and IL-4 varied; b) in individual cases, the T cells were primed with either purified native (N) or recombinant (R) Der p I protein at either 20 μg/ml or 10 μg/ml; and c) in individual cases, x-irradiated (3500 Rads) autologous PBMC were used as antigen presenting cells in the secondary proliferation assay.
Individual results were considered positive and used if the individual responded to the Der p I protein and at least one peptide derived from Der p I at an S.I. of 2.0 or greater. The resting T cell lines primed with recombinant or native Der p I-stimulated PBMC were tested for reactivity to synthetic Der p I peptides. The maximum response for each peptide in a titration of the antigen is expressed as the T cell stimulation index (S.I.). The S.I. is the counts-per-minute (CPM) incorporated by cells in response to the peptide divided by the CPM incorporated by cells in medium only. […] However, only individual S.I. values greater than or equal to 2.0 (a response two-fold or greater over background), referred to herein as "positive" results, were used in calculating mean T cell stimulation indices for each peptide for the patient or group of patients tested. […] The T cell stimulation index is calculated by: [formula]
The bar represents the cumulative rank of the peptide response in the group of patients. To determine the cumulative rank, the 5 peptides with the highest S.I. in each individual were determined and assigned a numerical rank in descending order, with 5 representing the strongest response. The ranks for each peptide were then summed in the group of patients to determine the cumulative rank for the peptide. […] Given the percent positive and the mean T cell stimulation index, the positivity index (P.I.) for each peptide can be calculated.
The Der p I and Der f I proteins are very homologous (81% identity). Thus, experiments, similar to those of Example V, were carried out to determine the T cell responses of Der p I primed T cell lines when challenged with various Der p I peptides and substantially matching […].
The results of T cell studies using selected peptides derived from the Der p I, the Der f I, the Der p II and the Der f II proteins are shown in FIGS. 13-18a-d. […]

[2] = test system: T cell lines primed in vitro with Der p I; assay: T cell proliferation with fine map and modified Group I peptides (Example XIV); format: cell-based, human; details: FIGS. 31a-b
Method: (§1) Long term T cell lines were established by stimulation of 2×10^6 PBL/ml in bulk cultures of complete medium (RPMI-1640, 2 mM L-glutamine, 100 U/ml penicillin/streptomycin, 5×10^-5 M 2-mercaptoethanol, and 10 mM HEPES supplemented with 5% heat inactivated human AB serum) with 30 μg/ml of purified native Der p I or Der p II for 5-6 days at 37° C. in a humidified 5% CO2 incubator to select for house dust mite protein allergen reactive T cells. This amount of priming antigen was determined to be optimal for the activation of T cells from house dust mite allergic patients. Viable cells were purified by LSM centrifugation and cultured in complete medium supplemented with 5 units recombinant human IL-2/ml and 5 units recombinant human IL-4/ml for up to three weeks until the cells no longer responded to lymphokines and were considered "rested". The ability of the T cells to proliferate to selected peptides, purified Der p I or Der p II, or positive (PHA) controls or negative controls (medium only) was then assessed. For assay, 2×10^4 rested cells were restimulated in the presence of 2×10^4 autologous Epstein-Barr virus (EBV)-transformed B cells (prepared as described below) (gamma-irradiated with 25,000 RADS) or with 5×10^4 autologous PBMs (gamma-irradiated with 3500 RADS), with 2-50 μg/ml of purified native Der p I or Der p II in a volume of 200 μl complete medium in duplicate or triplicate wells in 96-well round bottom plates for 3 days. Each well then received 1 μCi tritiated thymidine for 16-20 hours. The counts incorporated were collected onto glass fiber filter mats and processed for liquid scintillation counting. […] The titrations were used to optimize the dose of peptides in T cell assays.
(§2) The maximum response in a titration of each peptide is expressed as the stimulation index (S.I.). The S.I. is the counts per minute (CPM) incorporated by cells in response to peptide, divided by the CPM incorporated by cells in medium only. […] The positive results were used in calculating mean stimulation indices for each peptide for the individual patient tested.
(§3) The above procedure was followed with 18 patients in the studies using peptides derived from Der p I and Der f I (FIGS. 31a-b), and 21 patients in the studies with Der p II peptides (FIGS. 32a-b). Individual patient results were used in calculating the mean S.I. for each peptide if the patient responded to the Der p I or Der p II protein at an S.I. of 2.0 or greater and the patient responded to at least one peptide derived from a house dust mite allergen at an S.I. f 2.0 or greater. A summary of positive experiments from the patients tested is shown in FIGS. 32a and 32b and FIGS. 33a and 33b. The bars represent the positivity index. […] In parenthesis above each bar are the mean stimulation indices for each peptide or protein for the group of patients tested.
(§4) Autologous EBV-transformed cell lines were γ-irradiated with 25,000 Rad and used as antigen presenting cells in secondary proliferation assays and secondary bulk stimulations. These EBV-transformed cell lines were made by incubating 5×10^6 PBL with 1 ml of B-59/8 Marmoset cell line (ATCC CRL1612, American Type Culture Collection, Rockville, Md.) conditioned medium in the presence of 1 μg/ml phorbol 12-myristate 13-acetate (PMA) at 37° C. for 60 minutes in 12×75 mm polypropylene round-bottom Falcon snap cap tubes (Becton Dickinson Labware, Lincoln Park, N.J.). These cells were then diluted to 1.25×10^6 cells/ml in RPMI-1640 as described above except supplemented with 10% heat-inactivated fetal bovine serum and cultured in 200 μl aliquots in flat bottom culture plates until visible colonies were detected. They were then transferred to larger wells until the cell lines were established.

[3] = test system: T cell lines primed in vitro with Der p II; assay: T cell proliferation with fine map and modified Group II peptides (Example XIV); format: cell-based, human; details: for positive T cell responses, modified peptides: 21 T cell lines, Der p II primed, FIG. 32a; for T cell response, Group II peptides: FIGS. 32a-b
Method: as §1, §2, §3, §4

[4] = test system: human IgE; assay: direct binding ELISA of IgE to mite allergen proteins and peptides; details: plasma of 19 mite-allergic patients and pool of 18; Example XV
Method: The coating antigens were removed and the wells are blocked with 0.5% gelatin in PBS, 300 μl/well for 2 hours at room temperature. Pooled human plasma (a mix of plasma samples from 20 patients that were skin test positive for commerical mite extract) was serially diluted with PBS-Tween 20 (PBS with 0.05% nonionic detergent Tween-20 Sigma, St. Louis, Mo.) and 100 μl/well a.backslash.was added and incubated overnight at 4° C. (plasma dilutions were tested in duplicate). The second antibody (biotinylated goat anti-Human IgE, 1:1000, Kirkegaard & Perry Laboratories Inc, Gaithersburg, Md.), was added at 100 μl/well for one hour at room temperature. This solution was removed and streptavidin-HRPO, 1:10000, (Southern Biotechnology Associates, Inc., Birmingham, Ala.) was then added at 100 μl/well for one hour at room temperature (all wells are washed three times with PBS-Tween between each incubation step). TMB Membrane Peroxidase Substrate system (Kirkegaard & Perry Laboratories) was freshly miced, and added at […]. The color was allowed to develop for 2-5 minutes. The reaction was stopped by the addition of […] of 1M phosphoric acid. Plates were read on a Microplate IL310 Autoreader (Biotech Instruments, Winooski, Vt.) with a 450 nm filter. The absorbance levels of duplicate wells were averaged. The order of coating antigens listed vertically in these figure legends corresponds in orDer from left to right to the coating antigens listed for each histogram.
The antigen preparation that was used as a positive control was a mixture of the four major biochemically purified mite allergens (term PMA for Purified Mite Allergen); Der f I, Der f II, Der p I and Der p II. The stock was generated at a concentration of 100 μgs of each protein per millimeter or 400 μgs total protein/ml. This preparation was used on each coated ELISA plate.

Substance: DF I-22.4: Der f I peptide (VAATESAYLAYRNTSLDLSEQELVDCASQ)
- T cell response to selected Der f I peptides ([1]; Der p I primed, 30 positive experiments, FIG. 15a): respond significantly
- T cell response, Group I peptides [2]: positive responses

Substance: DP I-11.1: Der p I peptide, native sequence (HRNQSLDLAEQELVDCASQHGC)
- difference in mean S.I. or percentage of positive responses, original vs additional (native sequence) peptides ([1]; DP I-11/12 vs DP I-11.1/12.1): no significant difference
- T cell response, Group I peptides [2]: positive response

Substance: DP I-21.1: Der p I peptide (TNACSINGNAPAEIDLRQMRTVTPIRMQ)
- T cell response to selected Der p I peptides [1]: respond significantly
- positivity index (P.I.) [1]: at least 150
- T cell response, Group I peptides [2]: positive response

Substance: DP I-22.4: Der p I peptide (VAATESAYLAHRNQSLDLAEQELVDCASQ)
- T cell response, Group I peptides [2]: positive responses

Substance: DP I-23.1: Der p I peptide (EYIQHNGVVQESYYRYVAREQCRRPNAQ)
- T cell response to selected Der p I peptides [1]: respond significantly
- ranked sum of peptide responses ([1]; FIG. 15b, preferred peptides): highest ranked sum
- positivity index (P.I.) [1]: at least 150
- T cell response, Group I peptides [2]: positive T cell studies

Substance: DP I-26.1: Der p I peptide (IIGIKDLDAFRHYDGRTIIQRDNGYQ)
- T cell response to selected Der p I peptides [1]: respond significantly
- positivity index (P.I.) [1]: at least 150
- T cell response, Group I peptides [2]: positive T cell studies

The next lines start with results.

- IgE binding (ELISA), modified peptides [4]: No plasma samples contained IgE
Substance: DP II-20.8: modified Der p II peptide (DQVDVKDCANHEIKKVLVPGCHGSEPK)
- positive T cell responses, modified peptides [3]: all 21 T cell lines responded positively

- IgE binding (ELISA), modified peptides [4]: No plasma samples contained IgE
Substance: DP II-20.10: modified Der p II peptide (DQVDVKDCANHEIKKVLVPGCHGSEG)
- positive T cell responses, modified peptides [3]: all 21 T cell lines responded positively
- T cell response, Group II peptides [3]: positive T cell studies

- IgE binding (ELISA), modified peptides [4]: No plasma samples contained IgE
Substance: DP II-20.11: modified Der p II peptide; printed with the same SEQ ID NO as DP II-20.9 (DQVDVKDCANHEIKKVLVPGCHGSE)
- positive T cell responses, modified peptides [3]: all 21 T cell lines responded positively
- T cell response, Group II peptides [3]: positive T cell studies

- IgE binding (ELISA), modified peptides [4]: No plasma samples contained IgE
Substance: DP II-22.19: DKELEAVFEANQNTKTAKIEIKAD
- positive T cell responses, modified peptides [3]: all 21 T cell lines responded positively
- T cell response, Group II peptides [3]: positive T cell studies

- IgE binding (ELISA), modified peptides [4]: No plasma samples contained IgE
Substance: DP II-22.22: DKELEAVFEANQNTKTAKIEIKK
- positive T cell responses, modified peptides [3]: all 21 T cell lines responded positively
- T cell response, Group II peptides [3]: positive T cell studies

- IgE binding (ELISA), modified peptides [4]: No plasma samples contained IgE
Substance: DP II-22.23: DKELEAVFEANQNTKTAKIED
- positive T cell responses, modified peptides [3]: all 21 T cell lines responded positively
- T cell response, Group II peptides [3]: positive T cell studies

- IgE binding (ELISA), modified peptides [4]: No plasma samples contained IgE
Substance: DP II-25.9: modified Der p II peptide (DKTVKVMGDDGVLACAIATHAKIRDKE)
- positive T cell responses, modified peptides [3]: all 21 T cell lines responded positively
- T cell response, Group II peptides [3]: positive T cell studies
